Test results published in patent publication US8598202B2, “Aryl-hydroxyethylamino-pyrimidines and triazines as modulators of fatty acid amide hydrolase” (Janssen Pharmaceutica NV, priority 2008, dated 2013).
Where a name gives a salt, the structure may show the parent alone.

Key:
Rat FAAH-1 = target: T1, Rat FAAH-1 (Rattus norvegicus, UniProt P97612); experiment: Assay Method 2: rat FAAH-1 assay, 3H-anandamide hydrolysis in homogenate of SK-N-MC cells transfected with rat FAAH
T1 sequence (P97612 1-579): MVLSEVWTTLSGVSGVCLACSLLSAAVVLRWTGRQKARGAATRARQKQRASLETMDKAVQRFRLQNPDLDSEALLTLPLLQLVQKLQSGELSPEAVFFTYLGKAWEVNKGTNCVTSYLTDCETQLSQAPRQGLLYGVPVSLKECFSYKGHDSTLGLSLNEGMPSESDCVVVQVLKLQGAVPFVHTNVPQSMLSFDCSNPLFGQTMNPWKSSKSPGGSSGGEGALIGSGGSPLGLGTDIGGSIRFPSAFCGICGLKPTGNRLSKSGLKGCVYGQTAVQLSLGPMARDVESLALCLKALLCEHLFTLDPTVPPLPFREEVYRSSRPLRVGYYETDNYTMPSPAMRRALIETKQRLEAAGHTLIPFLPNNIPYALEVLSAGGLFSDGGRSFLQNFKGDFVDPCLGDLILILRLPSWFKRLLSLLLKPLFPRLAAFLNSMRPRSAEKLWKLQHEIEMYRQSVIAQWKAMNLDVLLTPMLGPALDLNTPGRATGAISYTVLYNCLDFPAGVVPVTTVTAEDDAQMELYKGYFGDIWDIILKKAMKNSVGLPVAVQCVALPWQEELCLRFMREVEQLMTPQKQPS
Procedure: The assay mixture consisted of 50 μL of the cell homogenate, 10 μL of the test compound, and 40 μL of anandamide [1-^3H-ethanolamine] (^3H-AEA, Perkin-Elmer, 10.3 Ci/mmol), which was added last, for a final tracer concentration of 80 nM. The reaction mixture was incubated at rt for 1 h. During the incubation, 96-well Multiscreen filter plates (catalog number MAFCNOB50; Millipore, Bedford, Mass., USA) were loaded with 25 μL of activated charcoal (Multiscreen column loader, catalog number MACL09625, Millipore) and washed once with 100 μL of MeOH. […] After the 1 h incubation, 60 μL of the reaction mixture were transferred to the charcoal plates, which were then assembled on top of the DYNEX plates using Centrifuge Alignment Frames (catalog number MACF09604, Millipore). The unbound labeled ethanolamine was centrifuged through to the bottom plate (5 min at 2000 rpm), which was preloaded with the scintillant, as described above. The plates were sealed and left at rt for 1 h before counting on a Hewlett Packard TopCount.

FAAH = target: T2, FAAH (Homo sapiens, UniProt O00519); experiment: Assay Method 1: FAAH assay, 3H-anandamide hydrolysis in homogenate of T84 cells or SK-N-MC cells transfected with human FAAH
T2 sequence (O00519 1-579): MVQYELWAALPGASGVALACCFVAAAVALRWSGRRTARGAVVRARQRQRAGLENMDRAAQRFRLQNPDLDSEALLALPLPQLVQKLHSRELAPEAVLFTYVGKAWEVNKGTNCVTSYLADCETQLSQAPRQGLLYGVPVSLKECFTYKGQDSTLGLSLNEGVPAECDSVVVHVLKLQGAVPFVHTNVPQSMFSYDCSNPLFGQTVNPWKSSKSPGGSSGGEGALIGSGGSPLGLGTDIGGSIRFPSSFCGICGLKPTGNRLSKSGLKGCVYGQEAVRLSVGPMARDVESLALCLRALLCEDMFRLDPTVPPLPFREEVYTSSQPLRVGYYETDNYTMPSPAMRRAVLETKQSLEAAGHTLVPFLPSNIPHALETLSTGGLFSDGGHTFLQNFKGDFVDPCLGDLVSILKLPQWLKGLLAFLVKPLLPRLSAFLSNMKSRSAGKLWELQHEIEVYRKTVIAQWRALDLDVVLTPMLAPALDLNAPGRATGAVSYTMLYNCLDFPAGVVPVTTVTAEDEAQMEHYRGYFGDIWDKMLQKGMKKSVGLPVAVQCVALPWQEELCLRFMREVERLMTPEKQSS

IC50 (Rat FAAH-1)	IC50 (FAAH)	SMILES
19 nM	13 nM	OC(CNc1cc(-c2ccc(OC(F)(F)F)cc2)ncn1)c1ccc2c(c1)OC(F)(F)O2 (stereo not shown) [Example 122, 1-(2,2-Difluoro-1,3-benzodioxol-5-yl)-2-[(6-{4-[(trifluoromethyl)oxy]phenyl}pyrimidin-4-yl)amino]ethanol]
4000 nM	800 nM	OC(CNc1cc(-c2ccc(OC(F)(F)F)cc2)ncn1)c1cccnc1 (stereo not shown) [Example 124, 1-Pyridin-3-yl-2-[(6-{4-[(trifluoromethyl)oxy]phenyl}pyrimidin-4-yl)amino]ethanol]
5000 nM	890 nM	OC(CNc1cc(-c2ccc(OC(F)(F)F)cc2)ncn1)c1ccncc1 (stereo not shown) [Example 125, 1-Pyridin-4-yl-2-[(6-{4-[(trifluoromethyl)oxy]phenyl}pyrimidin-4-yl)amino]ethanol]
1000 nM	1200 nM	OC(CNc1cc(-c2ccc(OC(F)(F)F)cc2)ncn1)c1cc(Cl)cc(Cl)c1 (stereo not shown) [Example 126, 1-(3,5-Dichlorophenyl)-2-[(6-{4-[(trifluoromethyl)oxy]phenyl}-pyrimidin-4-yl)amino]ethanol]
112 nM	122 nM	OC(CNc1cc(-c2ccc(OC(F)(F)F)cc2)ncn1)c1ccc2c(c1)OCO2 (stereo not shown) [Example 127, 1-(1,3-Benzodioxol-5-yl)-2-[(6-{4-[(trifluoromethyl)oxy]phenyl}-pyrimidin-4-yl)amino]ethanol]
120 nM	16 nM	CC(O)c1ccc(-c2cc(NC[C@H](O)c3ccccc3)ncn2)cc1F (stereo partly drawn) [Example 129, (1R)-2-({6-[3-Fluoro-4-(1-hydroxyethyl)phenyl]pyrimidin-4-yl}amino)-1-phenylethanol trifluoroacetic acid salt]
15 nM	120 nM	OC(CNc1cc(-c2ccc(C(F)(F)F)c(Cl)c2)ncn1)c1cccc(OC(F)(F)F)c1 (stereo not shown) [Example 130, 2-({6-[3-Chloro-4-(trifluoromethyl)phenyl]pyrimidin-4-yl}amino)-1-[3-(trifluoromethoxy)phenyl]ethanol trifluoroacetic acid salt]
15 nM	30 nM	OC(CNc1cc(-c2ccc(C(F)(F)F)c(Cl)c2)ncn1)c1ccc(Cl)c(F)c1 (stereo not shown) [Example 133, 1-(4-Chloro-3-fluoro-Phenyl)-2-[6-(3-chloro-4-trifluoromethyl-phenyl)-pyrimidin-4-ylamino]-ethanol trifluoroacetic acid salt]
19 nM	27 nM	OC(CNc1cc(-c2ccc(C(F)(F)F)c(Cl)c2)ncn1)c1ccc(F)c(Cl)c1 (stereo not shown) [Example 134, 1-(3-Chloro-4-fluorophenyl)-2-({6-[3-chloro-4-(trifluoromethyl)phenyl]pyrimidin-4-yl}amino)ethanol trifluoroacetic acid salt]
16 nM	100 nM	OC(CNc1cc(-c2ccc(C(F)(F)F)c(Cl)c2)ncn1)c1cccc(C(F)(F)F)c1 (stereo not shown) [Example 135, 2-({6-[3-Chloro-4-(trifluoromethyl)phenyl]pyrimidin-4-yl}amino)-1-[3-(trifluoromethyl)phenyl]ethanol trifluoroacetic acid salt]
340 nM	84 nM	O[C@@H](CNc1cc(-c2ccc(Cl)c(Cl)c2)nc(C2CC2)n1)c1ccccc1 [Example 136, (1R)-2-{[2-Cyclopropyl-6-(3,4-dichlorophenyl)pyrimidin-4-yl]amino}-1-phenylethanol]
5000 nM	920 nM	CC(C)c1nc(NC[C@H](O)c2ccccc2)cc(-c2ccc(Cl)c(Cl)c2)n1 [Example 137, (1R)-2-{[6-(3,4-Dichlorophenyl)-2-(1-methylethyl)pyrimidin-4-yl]amino}-1-phenylethanol]
265 nM	127 nM	Cc1n[nH]c2cc(-c3cc(NC[C@H](O)c4ccccc4)ncn3)ccc12 [Example 140, (1R)-2-{[6-(3-Methyl-1H-indazol-6-yl)pyrimidin-4-yl]amino}-1-phenylethanol trifluoroacetic acid salt]
5 nM	12 nM	CNc1nc(NC[C@H](O)c2ccccc2)cc(-c2ccc(C(F)(F)F)c(Cl)c2)n1 [Example 141, (1R)-2-({6-[3-Chloro-4-(trifluoromethyl)phenyl]-2-(methylamino)pyrimidin-4-yl}amino)-1-phenylethanol trifluoroacetic acid salt]
60 nM	9 nM	O[C@@H](CNc1cc(-c2ccc(I)cc2)ncn1)c1ccccc1 [Example 142, (1R)-2-{[6-(4-Iodophenyl)pyrimidin-4-yl]amino}-1-phenylethanol]
2000 nM	7000 nM	O[C@H](CNc1cc(-c2ccc(C(F)(F)F)c(Cl)c2)ncn1)c1ccc(Cl)c(F)c1 [Example 145, (1S)-1-(4-Chloro-3-fluoro-phenyl)-2-[6-(3-chloro-4-trifluoromethyl-phenyl)-pyrimidin-4-ylamino]-ethanol]
4 nM	26 nM	O[C@@H](CNc1cc(-c2ccc(C(F)(F)F)c(Cl)c2)ncn1)c1ccc(Cl)c(F)c1 [Example 146, (1R)-1-(4-Chloro-3-fluoro-phenyl)-2-[6-(3-chloro-4-trifluoromethyl-Phenyl)-pyrimidin-4-ylamino]-ethanol]
5000 nM	1500 nM	C[C@@H](Nc1cc(-c2ccc(OC(F)(F)F)cc2)ncn1)[C@@H](O)c1ccccc1 [Example 150, (1S,2R)-1-Phenyl-2-[(6-{4-[(trifluoromethyl)oxy]phenyl}pyrimidin-4-yl)amino]propan-1-ol]
> 10000 nM	4000 nM	O[C@@H](CNc1cc(-c2ccc(C(F)(F)F)cc2C(F)(F)F)ncn1)c1ccccc1 [Example 152, (1R)-2-({6-[2,4-Bis(trifluoromethyl)phenyl]pyrimidin-4-yl}amino)-1-phenylethanol trifluoroacetic acid salt]
270 nM	60 nM	Cc1nc(NC[C@H](O)c2ccccc2)cc(-c2ccc(Cl)c(Cl)c2)n1 [Example 155, (1R)-2-{[6-(3,4-Dichlorophenyl)-2-methylpyrimidin-4-yl]amino}-1-phenylethanol]
4000 nM	2000 nM	NCCNc1nc(NC[C@H](O)c2ccccc2)cc(-c2ccc(C(F)(F)F)c(Cl)c2)n1 [Example 157, (1R)-2-({2-[(2-Aminoethyl)amino]-6-[3-chloro-4-(trifluoromethyl)phenyl]pyrimidin-4-yl}amino)-1-phenylethanol trifluoroacetic acid salt]
110 nM	3460 nM	CN(C)CCNc1nc(NC[C@H](O)c2ccccc2)cc(-c2ccc(C(F)(F)F)c(Cl)c2)n1 [Example 158, (1R)-2-[(6-[3-Chloro-4-(trifluoromethyl)phenyl]-2-{[2-(dimethylamino)ethyl]amino}pyrimidin-4-yl)amino]-1-phenylethanol trifluoroacetic acid salt]
7 nM	20 nM	CCNc1nc(NC[C@H](O)c2ccccc2)cc(-c2ccc(C(F)(F)F)c(Cl)c2)n1 [Example 159, (1R)-2-({6-[3-Chloro-4-(trifluoromethyl)phenyl]-2-(ethylamino)pyrimidin-4-yl}amino)-1-phenylethanol trifluoroacetic acid salt]
290 nM	150 nM	OCCNc1nc(NC[C@H](O)c2ccccc2)cc(-c2ccc(C(F)(F)F)c(Cl)c2)n1 [Example 160, (1R)-2-({6-[3-Chloro-4-(trifluoromethyl)phenyl]-2-[(2-hydroxyethyl)amino]pyrimidin-4-yl}amino)-1-phenylethanol trifluoroacetic acid salt]
130 nM	570 nM	O[C@@H](CNc1cc(-c2ccc(C(F)(F)F)c(Cl)c2)nc(NC2CC2)n1)c1ccccc1 [Example 162, (1R)-2-({6-[3-Chloro-4-(trifluoromethyl)phenyl]-2-(cyclopropylamino)pyrimidin-4-yl}amino)-1-phenylethanol trifluoroacetic acid salt]
2000 nM	2000 nM	CNCCNc1nc(NC[C@H](O)c2ccccc2)cc(-c2ccc(C(F)(F)F)c(Cl)c2)n1 [Example 163, (1R)-2-[(6-[3-Chloro-4-(trifluoromethyl)phenyl]-2-{[2-(methylamino)ethyl]amino}pyrimidin-4-yl)amino]-1-phenylethanol hydrochloride salt]
